Data: patent US6187754A, “Sialyl-Lewisa and sialyl-Lewisx epitode analogues” (GlycoTech Corp., priority 1996, dated 2001)

Key:
[1] = Remark on solubility in NMR characterisation; assay type: physicochemical; conditions: CD3OD-D2O-CDCl3 (NMR solvent); no 13C NMR
[2] = Remark on oxidation sensitivity in NMR characterisation; assay type: physicochemical; conditions: no long-term 13C-NMR measurement

solubility [1]	SMILES	sensitivity to oxidation in organic solvents [2]
poor solubility	COC(=O)CCCCCCCCO[C@@H]1O[C@H](CO)[C@@H](O[C@@H]2O[C@H](CO)[C@H](O)[C@H](O[C@]3(C(=O)O)C[C@H](O)[C@@H](NC(C)=O)[C@H]([C@H](O)[C@H](O)CO)O3)[C@H]2O)[C@H](O)[C@H]1NC(=O)c1cnc2nc(N)nc(O)c2n1 [(59)]	
	COC(=O)CCCCCCCCO[C@@H]1O[C@H](CO)[C@@H](O)[C@H](O[C@@H]2O[C@H](CO)[C@H](O)[C@H](O[C@]3(C(=O)O)C[C@H](O)[C@@H](NC(C)=O)[C@H]([C@H](O)[C@H](O)CO)O3)[C@H]2O)[C@H]1NC(=O)c1ccc(O)c(O)c1 [(73)]	sensitivity of the compound to oxidation in organic solvents
